Results reported in publication PMC13316043, “Structural basis of NSD2 degradation via targeted recruitment of SCF-FBXO22” (Nature Communications, 2026).

Biological target: T1, NSD2 (U2OS NSD2-HiBiT cells) (Homo sapiens, UniProt O96028)
T1 construct: RNPs were introduced into U2OS cells by electroporation; endogenous in cells; host or cells: U2OS NSD2-HiBiT clone P112 (CRISPR knock-in)
T1 sequence (O96028 1-1365): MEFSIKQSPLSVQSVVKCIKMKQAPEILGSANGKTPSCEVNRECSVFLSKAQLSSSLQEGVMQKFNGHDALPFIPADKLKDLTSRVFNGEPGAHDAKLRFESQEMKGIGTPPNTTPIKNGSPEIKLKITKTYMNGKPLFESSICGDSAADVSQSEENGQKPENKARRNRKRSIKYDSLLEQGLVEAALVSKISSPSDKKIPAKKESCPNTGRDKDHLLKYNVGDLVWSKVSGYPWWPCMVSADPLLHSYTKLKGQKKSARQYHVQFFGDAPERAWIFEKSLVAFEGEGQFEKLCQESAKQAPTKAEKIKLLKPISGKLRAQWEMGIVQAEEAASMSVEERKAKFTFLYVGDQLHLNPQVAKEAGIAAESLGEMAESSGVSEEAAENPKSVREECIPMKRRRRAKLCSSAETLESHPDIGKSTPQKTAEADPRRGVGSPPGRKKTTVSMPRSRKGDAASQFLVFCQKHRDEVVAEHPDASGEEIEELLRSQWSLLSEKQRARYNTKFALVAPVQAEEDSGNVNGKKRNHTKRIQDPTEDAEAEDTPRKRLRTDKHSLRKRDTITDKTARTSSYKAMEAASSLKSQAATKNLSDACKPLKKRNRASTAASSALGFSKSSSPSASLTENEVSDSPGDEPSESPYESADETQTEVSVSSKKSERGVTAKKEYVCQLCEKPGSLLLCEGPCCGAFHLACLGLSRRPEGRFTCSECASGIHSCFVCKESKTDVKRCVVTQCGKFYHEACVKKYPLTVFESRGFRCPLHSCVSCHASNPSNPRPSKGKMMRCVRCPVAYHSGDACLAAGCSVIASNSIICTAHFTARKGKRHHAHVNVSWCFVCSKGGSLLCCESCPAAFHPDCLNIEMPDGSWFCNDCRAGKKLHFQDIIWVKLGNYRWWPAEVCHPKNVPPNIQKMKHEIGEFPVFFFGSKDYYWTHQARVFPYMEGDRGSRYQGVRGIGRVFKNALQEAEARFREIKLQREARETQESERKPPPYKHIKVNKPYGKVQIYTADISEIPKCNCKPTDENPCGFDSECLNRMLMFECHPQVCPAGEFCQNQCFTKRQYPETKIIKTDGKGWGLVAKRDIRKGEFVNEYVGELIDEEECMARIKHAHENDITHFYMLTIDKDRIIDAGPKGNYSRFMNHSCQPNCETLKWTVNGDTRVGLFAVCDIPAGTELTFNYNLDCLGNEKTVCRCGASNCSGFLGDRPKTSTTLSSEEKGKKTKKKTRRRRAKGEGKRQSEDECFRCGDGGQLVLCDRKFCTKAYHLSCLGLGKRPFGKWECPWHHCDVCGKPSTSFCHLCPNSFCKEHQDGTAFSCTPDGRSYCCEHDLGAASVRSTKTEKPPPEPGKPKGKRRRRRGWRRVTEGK
Experiment: NSD2 HiBiT degradation assay
Assay type: cell-based
Details: for NSD2 Remaining (%) / reduction of NSD2 levels: U2OS NSD2-HiBit cells, 1 µM, 6 h; for DC50: dose-response, read-out: DC50 (concentration at which 50% of NSD2 is degraded)
Text: The NSD2 genomic sequence was obtained from the UCSC genome browser and used to design sgRNAs to introduce HiBiT tags at either the 5’ or 3’ ends of the gene. sgRNA were assembled into RNPs using TrueCut Cas9 Protein v2 (Invitrogen, Cat#A36497), an sgRNA crRNA:tracrRNA duplex (below; IDT) and ssODN (below; IDT). RNPs were introduced into U2OS cells by electroporation using a Neon XT electroporation system (1750 V, 10 ms, 3 pulses) in R-buffer, using Thermo Fisher Neon transfection kit (Cat# MPK1025K) and according to the manufacturer's protocol. After plating for recovery for four days, single cell clones limited dilution cloning. Single cell clones that grew out were identified as containing integrated HiBiT tags on NSD2 by performing HiBiT assays using HiBiT lytic assay (Promega: N3040) and read on a plate reader. Clones were further confirmed by PCR analysis.
To test compounds for NSD2 degradation, a compound plate was prepared by diluting compounds in DMSO into cell media in a 384-deep-well plate (Revvity). Then, 6 µL of the diluted compounds were transferred into the well of the 384-well assay plate (Corning). 24 µL of the NSD2 HiBiT U2OS P112 cells or parental U2OS cells (3000 cells/well) were added to each well to make a final volume of 30 µL with a 0.1% final DMSO concentration. For multiple time points, multiple assay plates were made and incubated in the incubator at 37 °C in 5% CO2 for 3/6/12/24/48 hrs. 10 min before the reading, the assay plate and the Nano-Glo HiBiT Lytic Detection System (Promega) were brought to room temperature. The HiBiT lytic reagent master mix was prepared according to the product instructions and added to the assay plate. The plate was then incubated on an orbital shaker for 5 min at room temperature, equilibrated for 10 min, and then read using the GloMax luminometer (Promega) for luminescence detection. Compound treatment was normalized to the DMSO control with the background subtraction using the parental U2OS cell line as the background control, plated alongside the HiBiT U2OS P112 cells. The data and graphs were then analyzed and generated using GraphPad Prism (v 10.4.1). DC50 and Dmax were calculated by fitting the data to a non-linear regression curve.

Cc1cc(C=O)ccc1C(=O)N1CCc2cc(NC(=O)c3ccc(CN(C(=O)c4ccc5c(c4)OCC(=O)N5)C4CC4)cc3)ccc2C1 [UNC12149]
NSD2 Remaining (%): 7.4%
reduction of NSD2 levels: greater than 90%
fold more potent (DC50) than UNC8732 (U2OS NSD2 HiBit cells): ~ 10 fold
fold more potent (DC50) than UNC10415667 (U2OS NSD2 HiBit cells): ~ 4 fold
DC50 (U2OS NSD2 HiBit cells): 120 nM

O=Cc1ccc(C(=O)N2CCc3cc(NC(=O)c4ccc(CN(C(=O)c5ccc6c(c5)OCC(=O)N6)C5CC5)cc4)ccc3C2)cc1 [UNC10415667]
NSD2 Remaining (%): 20%
reduction of NSD2 levels: about 75%
fold more potent (DC50) than UNC8732 and UNC10088 (U2OS NSD2 HiBit cells): about 2 fold
DC50 (U2OS NSD2 HiBit cells): 460 nM
